Measured values: US20190142835A1, “INHIBITION OF AUTOPHAGY USING PHOSPHOLIPASE A2 INHIBITORS” (OREGON HEALTH & SCIENCE UNIVERSITY, priority 2017, published 2019)

Tests used:
ACHN cells [1] = assay: High content imaging screen of 116 small molecule inhibitors for p62 and pS6; format: cell-based, human; conditions: HCI screen, 72 hr; for p62 expression and phosphorylation of S6: 7-point dilution series
Excerpt: We used a metastatic human RCC cell line, ACHN. Small molecule inhibitors have been extensively used in RCC over the last decade. […] Importantly, p62 is an autophagy substrate that is degraded along with its cargo, and so is expected to decrease with induction of autophagy. Therefore, we monitored p62 steady-state levels as an initial screen of autophagy flux. Next, we combined the measurement of the p62 with a measurement of mTORC1 activity an independent readout to evaluate autophagy. mTORC1 plays the central role in the anabolic process by increasing protein content through ribosomal biogenesis and elongation of protein translation. Specifically, mTORC1 induces mRNA translation by inducing the activation of p70S6 kinase and the subsequent phosphorylation of the S6 ribosomal protein. To ensure increased cellular biomass, mTORC1 downregulates autophagy. We chose the phosphorylation status of the downstream target of mTORC1 signaling, ribosomal S6 (hereafter S6) as a readout for mTORC1 activity.
To provide a straightforward method for detecting the induction of autophagy, we monitored ACHN cells for small molecule inhibitors which decreased the antibody labelled levels of p62 protein and pS6 phosphorylation (see methods below for detailed experiment procedure). To that end, automated high content imaging (HCl) microscopy was used to detect induction of autophagy as documented by the […] by p62 protein expression and mTORC1 inhibition by the decrease in S6 phosphorylation. The HCl assay was optimized for 384-well plate screening. Drug screening plates were designed and created as previously described.
A 7-point dilution series of 116 small molecule inhibitors covering a 1000× concentration range were plated into three, 384-well plates using the EP Motion automated dispensing system. Control wells with equal volumes of DMSO were included as negative controls. ACHN cells were grown, trypsinized counted, and plated directly into warm drug plates using Multidrop combi dispenser. Plates were incubated for 72 hr and subsequently imaged on the Olympus ScanR Platform at 10× magnification performing 4 images per well in 384 well plates. Single-cell nuclear and cytoplasmic fluorescent intensities were calculated using the Olympus ScanR Analysis Software: the DAPI-positive region of each cell was used as a boundary to quantitate nuclei counts for analysis of cell growth and integrated nuclear DNA staining intensity was used for cell cycle analysis. A 10-pixel extension of the nuclear region (and not including the nuclear region) was used to quantitate cytoplasmic signal of immunofluorescent staining of p62 protein and phosphorylation of S6. Mean signal intensity of each marker in all cells per well was used as the metric for cytoplasmic marker expression (average intensity of pS6 and p62). Unsupervised hierarchical clustering was used to identify compounds that produced similar pS6 and p62 dose response phenotypes after treatment.

ACHN cells [2] = assay: Apoptosis (Caspase 3/7-Glo), ACHN; format: cell-based, human
Experimental: (§1) Apoptosis was determined using Caspase 3/7-Glo assay kit (Promega) following the manufacturer's instructions. Briefly, 2000 cells per well were plated in 96 well plates and cultured for 72 h. […] Caspase 3/7 activity was measured using a luminometer. Luminescence values were normalized by cell numbers.

[3] = system: PI3K, mTORC1 and mTORC2 signaling; assay: Western blotting of PI3K-AKT-mTOR signaling; format: cell-based, human
Experimental: Cells were plated in 6 well dishes and treated the following day with the indicated agents. Treatments were for 24 hours, after which cells were washed with ice cold PBS and lysed with RIPA buffer (Sigma). Phosphatase inhibitor cocktail set II and protease inhibitor cocktail set III (EMD Millipore) were added at the time of lysis. Lysates were centrifuged at 15,000 g×10 min at 4 degrees C. Protein concentrations were calculated based on a BCA assay (Thermo Scientific) generated standard curve. Proteins were resolved using the NuPAGE Novex Mini Gel system on 4% to 12% Bis-Tris Gels (Invitrogen). For western blotting, equal amounts of cell lysates (15-20 μg of protein) were resolved with SDSPAGE, and transferred to membranes. The membrane was probed with primary antibodies, washed, and then incubated with corresponding fluorescent secondary antibodies and washed. The fluorescent signal was captured using LI-COR (Lincoln, Nebr.) Odyssey Imaging System, and fluorescent intensity was quantified using the Odyssey software where indicated. The following antibodies were used for Western blots: p-S6 (S240/244), S6, LC3B, p-Akt(S473), p-Akt(T308), Akt, cleaved caspase3 (Cell Signaling Technologies). p-Stat3 (Y705), Stat3 and β-actin (AC15) (Abcam). Ki67 (Dako) and cleaved caspase3 (Cell Signaling Technologies) were used for immunohistochemistry. […] BX795 and GDC0941 were purchased from Sigma.

SN12C cells [4] = assay: Cell viability (CellTiter-Glo), SN12C; format: cell-based, human; conditions: 3 days
Experimental: Cell viability assays were performed by plating 2000 cells/well in 96-well plates in triplicate and treating the following day with the indicated agent. The experiment was continued for 3 days and then cell viability was determined using CellTiter-Glo assay kit (Promega). The assay was measured using a luminometer. […] Experimental results are the average of at least three independent experiments.

ACHN cells [5] = assay: Cell viability (CellTiter-Glo), ACHN; format: cell-based, human; conditions: for proliferation (cell viability): ACHN, 3 days
Experimental: Cell viability assays were performed by plating 2000 cells/well in 96-well plates in triplicate and treating the following day with the indicated agent. The experiment was continued for 3 days and then cell viability was determined using CellTiter-Glo assay kit (Promega).
The assay was measured using a luminometer. […] Experimental results are the average of at least three independent experiments.

SN12C cells [6] = assay: Apoptosis (Caspase 3/7-Glo), SN12C; format: cell-based, human; conditions: 72 h
Experimental: as §1

mTORC1 = assay: Autophagy induction and mTORC1 inhibition by JAK inhibitors not contained in the library; format: cell-based
ACHN cells [7] = assay: Cellular respiration (XF96 Seahorse, ECAR and OCR); format: cell-based, human; conditions: 24 h
Experimental: Oxygen consumption and extracellular acidification rates were carried out in a XF96 Seahorse Analyzer (Seahorse Bioscience, Billerica, Mass., USA). Cells were plated in the wells of 96-well plates (8×10^3 cells/well; XF96 plates, Seahorse Bioscience, North Billerica, Mass.) and incubated at 37° C. overnight. The next day, cells were treated with indicated drugs for 24 hours and then the medium was changed to XF Assay Medium and loaded with glucose, oligomycin, and 2-DG, respectively, as manufacture's recommendation.

ACHN cells [8] = assay: Lipid droplet staining (Bodipy 493/503), ACHN; format: cell-based, human
Experimental: Cells were grown on coverslips then treated with drug for 24 hours. Cells were fixed in 4% paraformaldehyde for 15 min, rinsed with PBS. Cells were washed with a 1% saponin solution for 15 min at room temperature then washed several times in PBS to remove detergent. Cells were then incubated in Bodipy (ThermoFisher #D3922) at a final concentration of 1 uM for 10 min. Bodipy was removed and slides were rinsed with PBS then air dried and mounted on slides using Dako mounting media with Dapi.

For Cn1c(=O)n(-c2ccc(C(C)(C)C#N)cc2)c2c3cc(-c4cnc5ccccc5c4)ccc3ncc21 [BEZ-235], the “p62 expression and phosphorylation of S6” value (ACHN cells [1]) was “reduced both p62 expression and phosphorylation of S6”.
For O=C(NCCCNc1nc(Nc2cccc(NC(=O)N3CCCC3)c2)ncc1I)c1cccs1 [BX795], the “apoptosis (cleaved-caspase 3/7)” value (ACHN cells [2]; ACHN, 72 h) was “little or no effect on apoptosis”, the “mTORC1 or mTORC2 signaling (AKT S473 and S6 phosphorylation)” value [3] was “not able to inhibit mTORC1 or mTORC2 signaling” and the “proliferation (cell viability)” value (SN12C cells [4]) was “some anti-proliferative effects”. The “proliferation (cell viability)” value (ACHN cells [5]) was “some anti-proliferative effects” and the “apoptosis (cleaved-caspase 3/7)” value (SN12C cells [6]) was “little or no effect on apoptosis”.
C[C@]12O[C@H](C[C@]1(O)CO)n1c3ccccc3c3c4c(c5c6ccccc6n2c5c31)CNC4=O [CEP-701] was tested, and the autophagy induction (mTORC1) was “potently induced autophagy” and the mTORC1 inhibition (mTORC1) was “inhibited mTORC1”.
CN1CC[C@H](c2c(O)cc(O)c3c(=O)cc(-c4ccccc4Cl)oc23)[C@H](O)C1 [Flavopiridol] was tested, and the “p62 expression and phosphorylation of S6” value (ACHN cells [1]) was “reduced both p62 expression and phosphorylation of S6”.
For CS(=O)(=O)N1CCN(Cc2cc3nc(-c4cccc5[nH]ncc45)nc(N4CCOCC4)c3s2)CC1 [GDC-0941], the “effect on mTORC1 activity in cells treated with CYT387” value ([3]; added to CYT387) was “additive inhibitory effect on mTORC1 activity”, the “proliferation (cell viability)” value (SN12C cells [4]) was “some anti-proliferative effects” and the “proliferation (cell viability)” value (ACHN cells [5]) was “some anti-proliferative effects”.
For O=S(=O)(NCCNC/C=C/c1ccc(Br)cc1)c1cccc2cnccc12 [H89], the “p62 expression and phosphorylation of S6” value (ACHN cells [1]) was “reduced both p62 expression and phosphorylation of S6”.
With O=C(c1ccc(/C=C/c2n[nH]c3ccccc23)cc1)N1CCNCC1 [KW2449] the “induction of autophagy / autophagic flux” value (ACHN cells [1]) was “induce autophagy”.
For CCCCCCCC/C=C\CCCCCCCCOCCOP(=O)([O-])OCC[N+](C)(C)C [OOEPC, oleyloxyethylphosphocholine], the “apoptosis (Caspase3/7 activity) on addition to CYT387, MK2206, CYT387+MK2206” value (ACHN cells [2]) was “significantly increased apoptosis”, the “ECAR and OCR on addition to the CYT387-MK2206 combination” value (ACHN cells [7]) was “markedly decreased ECAR and OCR” and the “basal OCR on addition to the CYT387-MK2206 combination” value (ACHN cells [7]) was “marked decrease in the basal OCR”. For the same compound, the “spare respiratory capacity on addition to the CYT387-MK2206 combination” value (ACHN cells [7]) was “significantly reduced the spare respiratory capacity”, the “LD abundance on addition to CYT387, MK2206 and CYT387-MK2206 co-treated cells” value (ACHN cells [8]; 24 hrs) was “significantly reduced the LD abundance” and the “proliferation on co-treatment with CYT387, MK2206, CYT387+MK2206” value (ACHN cells [5]) was “minimal additional effect on proliferation”.
With CC(C)n1nc(-c2cc3cc(O)ccc3[nH]2)c2c(N)ncnc21 [PP-242] the “p62 expression and phosphorylation of S6” value (ACHN cells [1]) was “reduced both p62 expression and phosphorylation of S6”.
In the case of CN[C@@H]1C[C@H]2O[C@@](C)([C@@H]1OC)n1c3ccccc3c3c4c(c5c6ccccc6n2c5c31)C(=O)NC4 [Staurosporine], the “p62 expression and phosphorylation of S6” value (ACHN cells [1]) is reported as “reduced both p62 expression and phosphorylation of S6”.
For CC(C)C[C@H](NC(=O)[C@H](Cc1ccccc1)NC(=O)c1cnccn1)B(O)O [Velcade], the “p62 expression and phosphorylation of S6” value (ACHN cells [1]) was “reduced both p62 expression and phosphorylation of S6”.
Oc1nc(-c2ccc(C(F)(F)F)cc2)nc2c1CSCC2 [XAV939] was tested, and the “induction of autophagy / autophagic flux” value (ACHN cells [1]) was “induce autophagy”.
In the case of CCc1c(C(=O)C(N)=O)c2c(OCC(=O)O)cccc2n1Cc1ccccc1 [varespladib], the “apoptosis on addition to CYT387-MK2206 treated cells” value (ACHN cells [2]) is reported as “increased apoptosis” and the “LDs on addition to CYT387-MK2206 treated cells” value (ACHN cells [8]) is reported as “decreased LDs”.
